The source of these data is patent publication US9549994B2, “Compositions of nicardipine and sulfoalkylated β-cyclodextrin” (EKR Therapeutics, Inc., priority 2006, dated 2017).

The structures appear in SMILES notation.

Data set [1] can be described thus: Phase-solubility study of nicardipine HCl and CAPTISOL as a function of pH. In kind it is physicochemical. As to conditions: FIG. 1. The procedure: in this phase-solubility study, nicardipine HCl, in amounts that exceeded its solubility, was taken into vials containing buffers in the pH range of 3.6-7.4 and containing CAPTISOL® in the concentration range of 2-40% w/v. These evaluations were also done for buffer solutions containing no CAPTISOL®. The vials were sealed and shaken at room temperature until equilibrium was reached. Subsequently, test sample aliquots were withdrawn, filtered, and drug concentration was determined by RP-HPLC with UV detection.

For data set [2] the following is noted: cited from earlier work.

As for `COC(=O)C1=C(C)NC(C)=C(C(=O)OCCN(C)Cc2ccccc2)C1c1cccc([N+](=O)[O-])c1.Cl` (racemic) [nicardipine HCl, (±)-2-(benzyl-methylamino)ethyl methyl 1,4-dihydro-2,6-dimethyl-4-(m-nitrophenyl)-3,5-pyridinedicarboxylate monohydrochloride], the “solubility as a function of CAPTISOL concentration” value in data set [1] (at a given pH value, CAPTISOL 2-40% w/v) is reported as “increased”. Also, the “solubility as a function of pH” value in data set [1] (buffers pH 3.6-7.4, room temperature) is given as “decreased with increased pH”. Consider `COC(=O)C1=C(C)NC(C)=C(C(=O)OCCN(C)Cc2ccccc2)C1c1cccc([N+](=O)[O-])c1` (stereo not drawn) [Nicardipine, nicardipine], for which the solubility in water result in data set [2] is “only slightly soluble in water”.
